Earlier results, collected in PMC2874326 (Bioconjugate chemistry, 2010).

Test system: cells
Conditions: relative to Tat and unmodified poly-arginine cell penetrating peptides

C14-βAla-(Arg)7-Cys(SH)-NH2 [MPAP]
enhancement of peptide entry into cells by myristoylation: several-fold
